Measured values taken from patent US20120195929A1, “COMPOUNDS THAT MODULATE AUTOIMMUNITY AND METHODS OF USING THE SAME” (priority 2009, published 2012).
Entries after “also recorded” stand apart in the source; their conditions may differ.

How the values were obtained:
BDC 12-4.1 splenocytes = experiment: ELISPOT and supernatant cytokines, transgenic BDC 12-4.1 Rag−/− mouse splenocytes; assay type: cell-based
Procedure: Number of spots for each well is shown in the upper left hand corner.
The in vitro response of a monoclonal T cell population targeted to the B:9-23 peptide (rather than hybridomas) was evaluated by enzyme-linked immunospot (ELISPOT). […] Stimulation without the addition of B:9-23 peptide was unexpected and could be due to in vivo insulin peptide-MHC complexes present in the spleen. As shown in panel d of FIG. 3, both IL-10 (FIG. 3c) and IFN-γ (FIG. 3d) were quantified in the supernatant of stimulated splenocytes.

BDC 2.5 T cell hybridoma = BDC 2.5 T cell hybridoma response to chromogranin peptide mimotope presented by I-A^g7; assay type: cell-based, mouse; conditions: chromogranin peptide mimotope presented by I-A^g7 (FIG. 2d)
T cell hybridoma 8-1.1α1 = T cell hybridoma 8-1.1α1 response to B:9-23 peptide presented by I-A^g7; assay type: cell-based, mouse
Source text: B:9-23 peptide and small molecule binding to panel a) T cell hybridoma 8-1.1α1, panel b) hybridoma BDC 12-4.1, and panel c) hybridoma BDC 12-4.4. […] Dotted line is at the stimulation index of the B:9-23 peptide. TT=tetanus toxin (negative control peptide).
TT=tetanus toxin (negative control peptide). B:19(A)=substitution of the native cysteine for alanine at position 19 in B:9-23. […] Results are given as a stimulation index (SI) from triplicate cultures+s.e.m. The data are representative of at least three independent experiments. […] The figure is representative of three independent experiments.
The top 40 scoring compounds (shown in Table 1) were screened for their ability to alter anti-B:9-23 T cell responses to three different T cell hybridomas, all with the dominant conserved Vα5D-4 TCR element but different CDR3α, Jα, and TCRβ chains. […] The same assays evaluating hybridoma response were performed using 40 random compounds from the NCI/DTP repository.

NOD splenocytes = experiment: IL-10 ELISPOT, in vitro culture of NOD splenocytes; conditions: stimulated with glyphosine and B:9-23 peptide
Balb/c splenocytes = experiment: IL-10 ELISPOT, Balb/c splenocytes (I-A^d); assay type: cell-based, Balb/c mice
Source text: (§1) Balb/c mice have I-A^d as their class II antigen presenting molecule. I-A^d is structurally similar to I-A^g7 of the NOD, with both strains having identical I-A alpha chains (17 amino acid differences in the I-A beta chains). C57BL/6 mice have I-A^b as their class II antigen presenting molecule. Both strains lack the basic pocket 9 in the peptide binding groove.

NOD mice splenocytes = experiment: Ex vivo ELISPOT of splenocytes from NOD mice treated in vivo; conditions: 80 mg/kg/day intraperitoneal for 5 days, 10 week old female NOD mice; vs PBS
[1] = tested on: I-A^g7 congenic splenocytes; experiment: IL-10 ELISPOT, splenocytes from C57BL/6 mice congenic for I-A^g7; assay type: cell-based; conditions: C57BL/6 congenic for I-A^g7
Source text: as §1

I-A^g7 = experiment: Direct binding of biotinylated insulin B:9-23 peptide to purified I-A^g7; design: species or system mouse; conditions: 500 nM; increasing biotinylated B:9-23; 2 h and 24 h
C57BL/6 splenocytes = experiment: IL-10 ELISPOT, C57BL/6 splenocytes (I-A^b); assay type: cell-based, C57BL/6 mice; conditions: C57BL/6, I-A^b
Source text: as §1

NOD mice = experiment: Diabetes prevention study in NOD mice; conditions: 80 mg/kg/day i.p. 5 days per week from 4 to 21 weeks of age; p<0.001 vs PBS controls

Compound: O=C(O)CN(CP(=O)(O)O)CP(=O)(O)O [Glyphosine, N,N-bis(phosphonomethyl)glycine]
- IFN-γ positive cells (ELISPOT) (BDC 12-4.1 splenocytes; in vitro, 500 nM): much smaller increase in IFN-γ positive cells
- IL-10 positive cells (ELISPOT) (BDC 12-4.1 splenocytes; in vitro, 500 nM, with and without B:9-23 peptide): dramatically enhances IL-10 positive cells
- IFN-γ levels in supernatant (BDC 12-4.1 splenocytes; with B:9-23 peptide, compared to peptide alone): not increased; also recorded: decreases IFN-γ levels
- peptide stimulation of BDC 2.5 hybridoma (BDC 2.5 T cell hybridoma): did not enhance peptide stimulation
- TCR stimulation with other modified B:9-23 insulin peptides (T cell hybridoma 8-1.1α1; FIG. 2c): enhanced TCR stimulation
- EC50 (T cell hybridoma 8-1.1α1; Mus musculus, T-cell, with B:9-23 peptide (FIG. 2b), read-out: EC50 concentration, enhancement of TCR stimulation): 0.0706 µM
- maximal stimulatory effect, fold greater than peptide alone (T cell hybridoma 8-1.1α1; at 500 nM): approximately 2.5 fold
- concentration of maximal stimulatory effect (T cell hybridoma 8-1.1α1; with B:9-23 peptide): 500 nM
- lowest concentration at which an effect was seen (T cell hybridoma 8-1.1α1; with B:9-23 peptide (FIG. 2b)): 10 nM
- TCR stimulation, dependence on peptide (T cell hybridoma 8-1.1α1; with vs without B:9-23 peptide (FIG. 2b)): modulated TCR stimulation only when peptide is present
- IL-10 producing cells (ELISPOT) (NOD splenocytes): three- to four-fold increase
- IL-10 ELISPOT response to compound plus B:9-23 peptide (Balb/c splenocytes): failed to respond
- ex vivo IFN-γ ELISPOT (NOD mice splenocytes): no change in IFN-γ
- ex vivo IL-10 ELISPOT (NOD mice splenocytes): upregulation of IL-10
- IL-10 ELISPOT response to compound plus B:9-23 peptide [1]: responded
- B:9-23 peptide binding to empty I-A^g7 (I-A^g7): directly enhance B:9-23 peptide binding
- IL-10 ELISPOT response to compound plus B:9-23 peptide (C57BL/6 splenocytes): failed to respond
- development of diabetes (NOD mice): Prevention of diabetes occurred as long as therapy was administered
